Assay results from patent publication US10160738B2, “Neuroactive substituted cyclopent[a]anthracenes as modulators for GABA type-A receptors” (priority 2013, dated 2018).
Where two headings read alike, the source gives them in different places.

Columns and labels:
[1] = target: picrotoxin binding site on GABAA receptors; assay: [35S]-TBPS displacement (inhibition of [35S]-TBPS binding); settings: non-competitive displacement; duplicate experiments in triplicate; ± SEM
Method: The IC50 values for non-competitive displacers of [^35S]-TBPS from the picrotoxin binding site on GABAA receptors are reported in Table 1.
Results presented are from duplicate experiments performed in triplicate. Error limits are calculated as standard error of the mean. Methods used are known in the art (see Jiang, X., et al., Neurosteroid analogues. 9. Conformationally constrained pregnanes: structure-activity studies of 13,24-cyclo-18,21-dinorcholane analogues of the GABA modulatory and anesthetic steroids (3α,5α)- and […]. J. Med. Chem., 46: 5334-48 (2003)—the contents of which are hereby incorporated by reference in their entirety).

tadpole = assay: Tadpole loss of righting reflex (LRR) and loss of swimming reflex (LSR); assay type: in vivo; settings: ± SEM
Method: Table 3 discloses the anesthetic effects of the compounds of the present disclosure. In particular, the anesthetic effect of the compounds of the present disclosure on Loss of Righting Reflex (LRR) and Loss of Swimming Reflex (LSR).
Methods used are known in the art (see Jiang, X., et al.). Error limits are calculated as standard error of the mean (N=10 or more animals at each of five or more different concentrations).

[2] = target: T1, rat α1β2γ2L type GABAA receptors expressed in Xenopus laevis oocytes (Rattus norvegicus, UniProt P18508+P62813+P63138, INS375LLRMFSFK); assay: Potentiation of GABA-mediated chloride currents, oocyte electrophysiology; assay type: cell-based; settings: ± SEM; for Oocyte electrophysiology (gating) 10 μM: direct current gated by 10 μM compound in absence of GABA, ratio compound only current/2 μM GABA current; for Oocyte electrophysiology 0.1 μM: ratio of currents in presence/absence of 0.1 μM compound; for Oocyte electrophysiology 0.1 μM / Oocyte electrophysiology 1.0 μM / Oocyte electrophysiology 10 μM: 2 μM GABA, N≥4; for Oocyte electrophysiology 1.0 μM: ratio of currents in presence/absence of 1.0 μM compound; for Oocyte electrophysiology 10 μM: ratio of currents in presence/absence of 10 μM compound
T1 construct: expressed in transfected cells; host or cells: Xenopus laevis oocytes
T1 sequence (P62813 28-455, stated change not applied): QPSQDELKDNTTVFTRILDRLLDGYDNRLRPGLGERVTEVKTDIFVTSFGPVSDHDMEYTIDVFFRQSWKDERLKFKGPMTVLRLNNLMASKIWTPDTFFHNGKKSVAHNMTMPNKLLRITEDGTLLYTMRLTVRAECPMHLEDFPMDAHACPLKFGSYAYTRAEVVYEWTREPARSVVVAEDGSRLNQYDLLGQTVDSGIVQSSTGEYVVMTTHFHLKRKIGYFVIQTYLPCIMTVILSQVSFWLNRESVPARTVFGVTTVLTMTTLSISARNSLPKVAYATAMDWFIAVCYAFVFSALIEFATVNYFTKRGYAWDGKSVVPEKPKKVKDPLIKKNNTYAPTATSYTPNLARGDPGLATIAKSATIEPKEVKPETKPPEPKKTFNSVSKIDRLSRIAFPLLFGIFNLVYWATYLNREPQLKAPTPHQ
T1 sequence (P63138 26-474, stated change not applied): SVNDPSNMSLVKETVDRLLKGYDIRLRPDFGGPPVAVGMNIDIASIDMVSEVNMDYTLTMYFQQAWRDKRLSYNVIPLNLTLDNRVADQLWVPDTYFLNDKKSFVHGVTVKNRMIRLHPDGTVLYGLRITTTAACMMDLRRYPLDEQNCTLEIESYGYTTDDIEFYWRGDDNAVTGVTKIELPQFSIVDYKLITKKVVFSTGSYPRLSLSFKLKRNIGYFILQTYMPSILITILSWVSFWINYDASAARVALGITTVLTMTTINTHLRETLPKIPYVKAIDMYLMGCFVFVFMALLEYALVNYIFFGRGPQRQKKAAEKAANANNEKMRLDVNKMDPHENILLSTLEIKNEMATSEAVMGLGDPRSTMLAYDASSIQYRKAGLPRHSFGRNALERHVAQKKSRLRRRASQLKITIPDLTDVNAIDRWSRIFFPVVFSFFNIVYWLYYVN
T1 sequence (P18508 with tags, fused parts or gaps INS375LLRMFSFK): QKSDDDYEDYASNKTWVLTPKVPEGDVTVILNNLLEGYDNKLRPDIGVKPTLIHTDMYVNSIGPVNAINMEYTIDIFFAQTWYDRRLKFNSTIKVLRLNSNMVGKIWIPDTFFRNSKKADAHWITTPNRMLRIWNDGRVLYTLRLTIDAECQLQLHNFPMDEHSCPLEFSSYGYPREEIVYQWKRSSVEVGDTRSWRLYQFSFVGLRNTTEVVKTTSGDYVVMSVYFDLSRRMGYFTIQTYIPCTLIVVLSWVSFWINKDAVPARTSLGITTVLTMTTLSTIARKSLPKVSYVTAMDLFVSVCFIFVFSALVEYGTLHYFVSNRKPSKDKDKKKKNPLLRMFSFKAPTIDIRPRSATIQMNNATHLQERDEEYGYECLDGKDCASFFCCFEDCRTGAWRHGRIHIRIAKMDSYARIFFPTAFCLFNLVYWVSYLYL
Method: The compounds of the present disclosure were evaluated for the ability to potentiate chloride currents mediated by 2 μM GABA at rat α1β2γ2L type GABAA receptors expressed in Xenopus laevis oocytes and the results are shown in Table 2.
The GABA concentration used for the control response was 2 μM. Each compound was evaluated on at least four different oocytes at the concentrations indicated, and the results reported are the ratio of currents measured in the presence/absence of added compound. Gating represents direct current gated by 10 μM compound in the absence of GABA, and this current is reported as the ratio of compound only current/2 μM GABA current. Error limits are calculated as standard error of the mean (N≥4). Methods used are known in the art (see Jiang, X., et al.).

[3] = loss of righting reflex, read-out: Tadpole LRR EC50
[4] = loss of swimming reflex, read-out: Tadpole LSR EC50

C[C@]12CC[C@@H]3C[C@@H]4C[C@@H](O)CC[C@H]4C[C@H]3[C@@H]1CC[C@@]21CO1 [MQ-75, (2′S,3S,3aS,5aR,6aR,8S,10aS,11aR,11bS)-Hexadecahydro-3a-methyl-spiro[3H-cyclopent[a]anthracene-3,2′-oxiran]-8-ol]
IC50 [1]: 226 ± 2 nM | melting point: 140 to 142 °C | EC50 (tadpole; [3]): 260 ± 40 nM | EC50 (tadpole; [4]): 950 nM | Oocyte electrophysiology (gating) 10 μM [2]: 0.13 ± 0.04 | Oocyte electrophysiology 0.1 μM [2]: 1.36 ± 0.03 | Oocyte electrophysiology 1.0 μM [2]: 7.67 ± 0.71 | Oocyte electrophysiology 10 μM [2]: 18.86 ± 1.99

C[C@@]12CC[C@H]3C[C@H]4C[C@H](O)CC[C@@H]4C[C@@H]3[C@H]1CC(=O)C2 [MQ-82, (3aS,5aS,6aS,8R,10aR,11aS,11bR)-8-Hydroxy-3a-methyl-hexadecahydro-2H-cyclopenta[a]anthracen-2-one]
IC50 [1]: 2680 nM | melting point: 145 to 147 °C | EC50 (tadpole; [3]): 3110 ± 10 nM | EC50 (tadpole; [4]): 7930 nM | Oocyte electrophysiology (gating) 10 μM [2]: 0.19 ± 0.17 | Oocyte electrophysiology 0.1 μM [2]: 0.80 ± 0.04 | Oocyte electrophysiology 1.0 μM [2]: 0.83 ± 0.06 | Oocyte electrophysiology 10 μM [2]: 2.43 ± 0.34

C[C@@]12CC[C@H]3C[C@H]4C[C@H](O)CC[C@@H]4C[C@@H]3[C@H]1CCC2=O [MQ-64, (3aR,5aS,6aS,8R,10aR,11aS,11bR)-Hexadecahydro-8-hydroxy-3a-methyl-3H-cyclopent[a]anthracen-3-one]
IC50 [1]: 346 ± 33 nM | melting point: 152 to 154 °C | EC50 (tadpole; [3]): 3080 ± 10 nM | Tadpole LSR EC50 (tadpole; loss of swimming reflex): None | Oocyte electrophysiology (gating) 10 μM [2]: 0.04 ± 0.03 | Oocyte electrophysiology 0.1 μM [2]: 0.98 ± 0.02 | Oocyte electrophysiology 1.0 μM [2]: 2.21 ± 0.17 | Oocyte electrophysiology 10 μM [2]: 8.81 ± 1.87

C[C@@]12CC[C@H]3C[C@H]4C[C@H](O)CC[C@@H]4C[C@@H]3[C@H]1CC[C@]21CO1 [MQ-65, (2′R,3R,3aR,5aS,6aS,8R,10aR,11aS,11bR)-Hexadecahydro-3a-methyl-spiro[3H-cyclopent[a]anthracene-3,2′-oxiran]-8-ol]
IC50 [1]: 251 ± 66 nM | melting point: 143 to 145 °C | EC50 (tadpole; [3]): 2090 ± 120 nM | EC50 (tadpole; [4]): 5480 ± 20 nM | Oocyte electrophysiology (gating) 10 μM [2]: 0.02 ± 0.0 | Oocyte electrophysiology 0.1 μM [2]: 1.27 ± 0.04 | Oocyte electrophysiology 1.0 μM [2]: 2.94 ± 0.28 | Oocyte electrophysiology 10 μM [2]: 6.86 ± 1.34

C[C@]12CC[C@@H]3C[C@@H]4C[C@@H](O)CC[C@H]4C[C@H]3[C@@H]1CC=C2C#N [MQ-76, (3aS,5aR,6aR,8S,10aS,11aR,11bS)-8-Hydroxy-3a-methyl-3a,4,5,5a,6,6a,7,8,9,10,10a,11,11a,11b-Tetradecahydro-1H-cyclopent[a]anthracene-3-carbonitrile]
IC50 [1]: 574 ± 142 nM | melting point: 164 to 166 °C | EC50 (tadpole; [3]): 390 ± 10 nM | EC50 (tadpole; [4]): 1730 ± 30 nM | Oocyte electrophysiology (gating) 10 μM [2]: 0.31 ± 0.30 | Oocyte electrophysiology 0.1 μM [2]: 0.95 ± 0.20 | Oocyte electrophysiology 1.0 μM [2]: 2.08 ± 0.16 | Oocyte electrophysiology 10 μM [2]: 9.43 ± 0.77

C[C@@]12CC[C@H]3C[C@H]4C[C@H](O)CC[C@@H]4C[C@@H]3[C@H]1CC=C2C#N [MQ-81, (3aR,5aS,6aS,8R,10aR,11aS,11bR)-8-Hydroxy-3a-methyl-3a,4,5,5a,6,6a,7,8,9,10,10a,11,11a,11b-Tetradecahydro-1H-cyclopent[a]anthracene-3-carbonitrile]
IC50 [1]: 174 ± 14 nM | melting point: 165 to 167 °C | EC50 (tadpole; [3]): 770 ± 40 nM | EC50 (tadpole; [4]): 1730 ± 40 nM | Oocyte electrophysiology (gating) 10 μM [2]: 0.09 ± 0.01 | Oocyte electrophysiology 0.1 μM [2]: 1.37 ± 0.14 | Oocyte electrophysiology 1.0 μM [2]: 5.69 ± 0.17 | Oocyte electrophysiology 10 μM [2]: 18.39 ± 0.70

C[C@]12CC[C@@H]3C[C@@H]4C[C@@H](O)CC[C@H]4C[C@H]3[C@@H]1CCC2=O [MQ-74, (3aS,5aR,6aR,8S,10aS,11aR,11bS)-Hexadecahydro-8-hydroxy-3a-methyl-cyclopent[a]anthracen-3-one]
IC50 [1]: 1190 nM | melting point: 152 to 154 °C | EC50 (tadpole; [3]): 3220 ± 30 nM | EC50 (tadpole; [4]): > 10000 nM | Oocyte electrophysiology (gating) 10 μM [2]: −0.01 ± 0.04 | Oocyte electrophysiology 0.1 μM [2]: 0.80 ± 0.06 | Oocyte electrophysiology 1.0 μM [2]: 1.00 ± 0.0 | Oocyte electrophysiology 10 μM [2]: 3.88 ± 0.56

C[C@]12CC[C@@H]3C[C@@H]4C[C@@H](O)CC[C@H]4C[C@H]3[C@@H]1CC[C@@H]2C#N [MQ-77, (3S,3aS,5aR,6aR,8S,10aS,11aR,11bS)-Hexadecahydro-8-hydroxy-3a-methyl-cyclopent[a]anthracene-3-carbonitrile]
IC50 [1]: 400 ± 118 nM | EC50 (tadpole; [3]): 590 ± 70 nM | EC50 (tadpole; [4]): 1730 ± 40 nM | Oocyte electrophysiology (gating) 10 μM [2]: 0.02 ± 0.09 | Oocyte electrophysiology 0.1 μM [2]: 1.03 ± 0.10 | Oocyte electrophysiology 1.0 μM [2]: 3.65 ± 0.39 | Oocyte electrophysiology 10 μM [2]: 14.80 ± 1.53
